Test results: article PMC8119466, “A screen of FDA-approved drugs identifies inhibitors of protein tyrosine phosphatase 4A3 (PTP4A3 or PRL-3)” (Scientific Reports, 2021)
Structures can show the parent of a compound that is named as a salt.

How the values were obtained:
Assay type in all cases: biochemical
Conditions in all cases: FDA-approved drug screen
recombinant PRL-3 = target: T1, recombinant PRL-3 (Homo sapiens, UniProt O75365); assay: In vitro phosphatase assay (DiFMUP hydrolysis), PRL-3; further: test concentration or dose not given here
T1 construct: 6xHis (N, cleaved yes); made in house; host or cells: E. coli One Shot BL21 Star

recombinant PRL-2 = target: T2, recombinant PRL-2 (Homo sapiens, UniProt Q12974); assay: In vitro phosphatase assay (DiFMUP hydrolysis), PRL-2;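 further: PRL-2 activity read as DiFMUP hydrolysis after 20 min at room temperature with drug, enzyme first pre-reduced at 4 °C for 20 min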
T2 construct: 6xHis (N, cleaved yes); made in house; host or cells: E. coli One Shot BL21 Star
T2 sequence (Q12974 1-167): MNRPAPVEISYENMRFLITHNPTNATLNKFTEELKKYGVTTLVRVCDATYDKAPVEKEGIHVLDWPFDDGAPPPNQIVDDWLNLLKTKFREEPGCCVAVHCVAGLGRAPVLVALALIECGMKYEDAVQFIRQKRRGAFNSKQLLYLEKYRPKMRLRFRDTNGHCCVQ

recombinant PRL-1 = target: T3, recombinant PRL-1 (Homo sapiens, UniProt Q93096); assay: In vitro phosphatase assay (DiFMUP hydrolysis), PRL-1; further: test concentration or dose not given here
T3 construct: 6xHis (N, cleaved yes); made in house; host or cells: E. coli One Shot BL21 Star
T3 sequence (Q93096 1-173): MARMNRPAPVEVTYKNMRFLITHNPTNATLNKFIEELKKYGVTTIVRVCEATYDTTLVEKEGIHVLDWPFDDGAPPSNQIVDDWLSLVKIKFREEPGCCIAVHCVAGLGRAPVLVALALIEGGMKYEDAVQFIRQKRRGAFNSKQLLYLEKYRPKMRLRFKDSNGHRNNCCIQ

T1 sequence (O75365 whole entry): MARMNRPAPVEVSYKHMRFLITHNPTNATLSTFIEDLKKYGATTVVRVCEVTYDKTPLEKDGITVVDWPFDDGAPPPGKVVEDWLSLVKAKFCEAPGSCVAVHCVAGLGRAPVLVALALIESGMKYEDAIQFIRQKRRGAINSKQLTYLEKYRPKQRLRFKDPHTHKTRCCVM

Structure (SMILES) | % Phosphatase Activity (compared to DMSO) PRL-3 (recombinant PRL-3; activity compared to DMSO) [%] | % Phosphatase Activity (compared to DMSO) PRL-2 (recombinant PRL-2; activity compared to DMSO) [%] | % Phosphatase Activity (compared to DMSO) PRL-1 (recombinant PRL-1; activity compared to DMSO) [%] | % Phosphatase Activity (compared to DMSO) PRL-3 (recombinant PRL-3; compared to DMSO) [%] | % Phosphatase Activity (compared to DMSO) PRL-2 (recombinant PRL-2; compared to DMSO) [%] | % Phosphatase Activity (compared to DMSO) PRL-1 (recombinant PRL-1; compared to DMSO) [%]
CC(C)NCC(O)c1ccc(NS(C)(=O)=O)cc1 (stereo not drawn) [Sotalol] | 78 | 97 | 98 |  |  | 
COc1nc(C)cnc1NS(=O)(=O)c1cccnc1-c1ccc(-c2nnco2)cc1 [Zibotentan (ZD4054)] | 94 | 97 | 99 |  |  | 
Cc1ccc(-c2nc3ccc(C)cn3c2CC(=O)N(C)C)cc1 [Zolpidem] | 85 | 97 | 98 |  |  | 
O=C(CCNNC(=O)c1ccncc1)NCc1ccccc1 [Nialamide] |  |  |  | 96 | 100 | 95
CC(C)(CO)C(O)C(=O)NCCCO (racemic) [DL-Panthenol] |  |  |  | 82 | 91 | 109
CC(C)c1nc(CN(C)C(=O)N[C@H](C(=O)N[C@@H](Cc2ccccc2)C[C@H](O)[C@H](Cc2ccccc2)NC(=O)OCc2cncs2)C(C)C)cs1 [Ritonavir] |  |  |  | 90 | 108 | 103
CCN(CC)C(=S)SSC(=S)N(CC)CC [Disulfiram] |  |  |  | 78 | 100 | 103
O=c1[nH]cnc2c1ncn2[C@H]1CC[C@@H](CO)O1 [Didanosine] |  |  |  | 85 | 114 | 95
CCOC(=O)[C@H](CCc1ccccc1)N[C@@H](C)C(=O)N1Cc2cc(OC)c(OC)cc2C[C@H]1C(=O)O [Moexipril HCl] |  |  |  | 83 | 98 | 103
CCC(C)(C)c1ccc(CC(C)CN2C[C@@H](C)O[C@@H](C)C2)cc1 (stereo partly drawn) [Amorolfine HCl] |  |  |  | 78 | 94 | 102
CC(COc1ccccc1)N(CCCl)Cc1ccccc1 (stereo not drawn) [Phenoxybenzamine HCl] |  |  |  | 81 | 112 | 106
C=CCNC(N)=S [Allylthiourea] |  |  |  | 86 | 121 | 106
CC[C@H]1OC(=O)C[C@@H](O)[C@H](C)[C@@H](O[C@@H]2O[C@H](C)[C@@H](O[C@H]3C[C@@](C)(O)[C@@H](O)[C@H](C)O3)[C@H](N(C)C)[C@H]2O)[C@@H](CC=O)C[C@@H](C)C(=O)/C=C/C(C)=C/[C@@H]1CO[C@@H]1O[C@H](C)[C@@H](O)[C@@H](OC)[C@H]1OC.O=C(O)C(O)C(O)C(=O)O [Tylosin tartrate] | 81 | 93 | 95 |  |  | 
COc1ccc(/C=C\c2cc(OC)c(OC)c(OC)c2)cc1OP(=O)([O-])[O-].[Na+].[Na+] |  |  |  | 109 | 76 | 88
Nc1ccc(S(=O)(=O)Nc2nccs2)cc1 [Sulfathiazole] | 87 | 114 | 119 |  |  | 
c1ccc2[nH]c(-c3cscn3)nc2c1 [Thiabendazole] | 119 | 99 | 99 |  |  | 
CC(C)NCC(O)c1cc(O)cc(O)c1 (stereo not drawn) [Metaproterenol Sulfate] |  |  |  | 95 | 112 | 98
O=[N+]([O-])C(Br)(CO)CO [Bronopol] |  |  |  | 86 | 96 | 103
C=CCNC1=C2C[C@@H](C)C[C@H](OC)[C@H](O)[C@@H](C)/C=C(\C)[C@H](OC(N)=O)[C@@H](OC)/C=C\C=C(/C)C(=O)NC(=CC1=O)C2=O [17-AAG (Tanespimycin)] |  |  |  | 81 | 83 | 86
O=S(=O)(O)CCS [Mesna] |  |  |  | 102 | 93 | 95

Structure (SMILES) | % Phosphatase Activity (compared to DMSO) PRL-3 (recombinant PRL-3; activity compared to DMSO) [%] | % Phosphatase Activity (compared to DMSO) PRL-2 (recombinant PRL-2; activity compared to DMSO) [%] | % Phosphatase Activity (compared to DMSO) PRL-1 (recombinant PRL-1; activity compared to DMSO) [%] | % Phosphatase Activity (compared to DMSO) PRL-3 (recombinant PRL-3; compared to DMSO) [%] | % Phosphatase Activity (compared to DMSO) PRL-2 (recombinant PRL-2; compared to DMSO) [%] | % Phosphatase Activity (compared to DMSO) PRL-1 (recombinant PRL-1; compared to DMSO) [%]
Cc1c(OCC(F)(F)F)ccnc1C[S@@+]([O-])c1nc2ccccc2[nH]1 [Dexlansoprazole] |  |  |  | 93 | 100 | 95
Nc1ccn([C@H]2CC[C@@H](CO)O2)c(=O)n1 [Zalcitabine] | 89 | 105 | 93 |  |  | 
N=C(N)NC(=O)Cc1c(Cl)cccc1Cl [Guanfacine Hydrochloride] |  |  |  | 96 | 84 | 103
CN(Cc1ccc(C(C)(C)C)cc1)Cc1cccc2ccccc12 [Butenafine HCl] |  |  |  | 88 | 112 | 117
CC1(C)S[C@@H]2[C@H](NC(=O)[C@H](NC(=O)N3CCNC3=O)c3ccccc3)C(=O)N2[C@H]1C(=O)O [Azlocillin sodium salt] |  |  |  | 85 | 112 | 100
CN(C)CC/C=C1/c2ccccc2COc2ccc(CC(=O)O)cc21 [Olopatadine HCl] |  |  |  | 74 | 121 | 116
CC(C)(C)Cn1c(N)nc2ccc(-c3[nH]c(C(C)(C)C)nc3-c3ccc(F)cc3)nc21 [LY2228820] |  |  |  | 131 | 137 | 159
Nc1cccc2c1C(=O)N(C1CCC(=O)NC1=O)C2=O (stereo not drawn) [Pomalidomide] |  |  |  | 204 | 248 | 264
C[C@@H]1CCN(C(=O)CC#N)C[C@@H]1N(C)c1ncnc2[nH]ccc12 [Tofacitinib (CP-690550,Tasocitinib)] | 96 | 114 | 117 |  |  | 
C[C@H](N[C@@H](CCc1ccccc1)C(=O)O)C(=O)N1CCC[C@H]1C(=O)O.O.O [Enalaprilat Dihydrate] |  |  |  | 78 | 102 | 102
COc1cc(Nc2ncc(F)c(Nc3ccc4c(n3)N(COP(=O)([O-])[O-])C(=O)C(C)(C)O4)n2)cc(OC)c1OC.[Na+].[Na+] [R788 (Fostamatinib) Disodium] |  |  |  | 88 | 119 | 90
CCC(=O)O[C@]1(C(=O)CCl)[C@@H](C)C[C@H]2[C@@H]3C[C@H](F)C4=CC(=O)C=C[C@]4(C)[C@@]3(F)[C@@H](O)C[C@@]21C [Halobetasol Propionate] |  |  |  | 77 | 88 | 88
Oc1cc(O)c(Cl)cn1 [Gimeracil] |  |  |  | 94 | 97 | 102
C[C@]1(c2nc3c(C(N)=O)cccc3[nH]2)CCCN1 [Veliparib (ABT-888)] | 83 | 99 | 108 |  |  | 
O=C1NC(=O)C(c2ccccc2)(c2ccccc2)N1 [Phenytoin sodium] |  |  |  | 68 | 100 | 100
COc1cc2ncnc(Nc3ccc(F)c(Cl)c3)c2cc1OCCCN1CCOCC1 [Gefitinib (ZD1839)] |  |  |  | 77 | 102 | 93
Nc1ccc(C(=O)[O-])c(O)c1.[Na+] [Sodium 4-Aminosalicylate] | 69 | 119 | 90 |  |  | 
Cc1cc(=O)n(-c2ccccc2)n1C [Antipyrine] |  |  |  | 87 | 107 | 98
O=C(O)c1ccc2c(c1)nc(Nc1cccc(Cl)c1)c1ccncc12 [CX-4945 (Silmitasertib)] |  |  |  | 86 | 81 | 85
Cc1c(OCC(F)(F)F)ccnc1C[S+]([O-])c1nc2ccccc2[nH]1 (stereo not drawn) [Lansoprazole] |  |  |  | 59 | 92 | 94
